# From BindingDB's records for doi:10.1016/s0968-0896(99)00127-3 (Sankyo, 1999)
# Molecular target: T1, Dimer of Gag-Pol polyprotein [489-587] (Human immunodeficiency virus 1, UniProt P12497)
# T1 construct: 489-587
# Experiment: Protease Inhibition Assay
# Procedure: The inhibitory activities of the compounds toward HIV-1 PR were determined by sodium dodecyl sulfate-polyacrylamide gel electrophoresis (SDS-PAGE) assay. The IC50 values of active compounds were determined using the partially purified protease and the synthetic substrate Ac-Ser-Gln-AsnTyr-Pro-Ile-Val-NH2.
row,SMILES,IC50 [nM]
1,Cc1cccc(C[C@H](NC(=O)c2c(C)ccc(O)c2C)[C@H](O)C(=O)N2C[C@@H](Cl)C[C@H]2C(=O)NC(C)(C)C)c1,3.4
2,"Cc1c(O)cccc1C(=O)N[C@@H](Cc1ccc(O)cc1)[C@H](O)C(=O)N1C[C@@H](Cl)C[C@H]1C(=O)NC(C)(C)C [(2S,4S)-N-tert-butyl-4-chloro-1-[(2S,3S)-2-hydroxy-3-[(3-hydroxy-2-methylphenyl)formamido]-4-(4-hydroxyphenyl)butanoyl]pyrrolidine-2-carboxamide]",1.3
3,"Cc1ccccc1C[C@H](NC(=O)c1cccc(O)c1C)[C@H](O)C(=O)N1C[C@@H](Cl)C[C@H]1C(=O)NC(C)(C)C [(2S,4S)-N-tert-butyl-4-chloro-1-[(2S,3S)-2-hydroxy-3-[(3-hydroxy-2-methylphenyl)formamido]-4-(2-methylphenyl)butanoyl]pyrrolidine-2-carboxamide]",4.5
4,Cc1c(O)cccc1C(=O)N[C@@H](CCc1ccccc1)[C@H](O)C(=O)N1C[C@@H](Cl)C[C@H]1C(=O)NC(C)(C)C [(3-Hydroxy-2-methylbenzoyl)-(2(S)-hydroxy-3(S)-amino-5-phenylpentanoyl)-4(S)-Cl-Pro-NH-t-Bu],1.4
5,"Cc1cc(O)c(C)c(C(=O)N[C@@H](Cc2ccc3ccccc3c2)[C@H](O)C(=O)N2C[C@@H](Cl)C[C@H]2C(=O)NC(C)(C)C)c1 [(2S,4S)-N-tert-butyl-4-chloro-1-[(2S,3S)-2-hydroxy-3-[(3-hydroxy-2,5-dimethylphenyl)formamido]-4-(naphthalen-2-yl)butanoyl]pyrrolidine-2-carboxamide]",0.8
6,"Cc1ccc(C(=O)N[C@@H](Cc2ccc(C(F)(F)F)cc2)[C@H](O)C(=O)N2C[C@@H](Cl)C[C@H]2C(=O)NC(C)(C)C)c(C)c1O [(2S,4S)-N-tert-butyl-4-chloro-1-[(2S,3S)-2-hydroxy-3-[(3-hydroxy-2,4-dimethylphenyl)formamido]-4-[4-(trifluoromethyl)phenyl]butanoyl]pyrrolidine-2-carboxamide]",6.3
7,Cc1c(O)cccc1C(=O)N[C@@H](Cc1ccc2ccccc2c1)[C@H](O)C(=O)N1C[C@@H](Cl)C[C@H]1C(=O)NC(C)(C)C [(3-Hydroxy-2-methylbenzoyl)-{2(S)-hydroxy-3(S)-amino-4-(beta-naphtyl)-butanoyl}-4(S)-Cl-Pro-NH-t-Bu],1
8,Cc1c(O)cc(F)cc1C(=O)N[C@@H](Cc1cccc(C(F)(F)F)c1)[C@H](O)C(=O)N1C[C@@H](Cl)C[C@H]1C(=O)NC(C)(C)C [(5-Fluoro-3-hydroxy-2-methylbenzoyl)-{2(S)-hydroxy-3(S)-amino-4-(3-trifluoromethyl)-phenylbutanoyl}-4(S)-Cl-Pro-NH-t-Bu],2.1
9,"Cc1c(O)cccc1C(=O)N[C@@H](Cc1ccc2sccc2c1)[C@H](O)C(=O)N1C[C@@H](Cl)C[C@H]1C(=O)NC(C)(C)C [(2S,4S)-1-[(2S,3S)-4-(1-benzothiophen-5-yl)-2-hydroxy-3-[(3-hydroxy-2-methylphenyl)formamido]butanoyl]-N-tert-butyl-4-chloropyrrolidine-2-carboxamide]",1.4
10,"Cc1ccc(C[C@H](NC(=O)c2cccc(O)c2C)[C@H](O)C(=O)N2C[C@@H](Cl)C[C@H]2C(=O)NC(C)(C)C)cc1C [(2S,4S)-N-tert-butyl-4-chloro-1-[(2S,3S)-4-(3,4-dimethylphenyl)-2-hydroxy-3-[(3-hydroxy-2-methylphenyl)formamido]butanoyl]pyrrolidine-2-carboxamide]",1.2
11,"Cc1ccc(O)c(C)c1C(=O)N[C@@H](Cc1cccc(C(F)(F)F)c1)[C@H](O)C(=O)N1C[C@@H](Cl)C[C@H]1C(=O)NC(C)(C)C [(2S,4S)-N-tert-butyl-4-chloro-1-[(2S,3S)-2-hydroxy-3-[(3-hydroxy-2,6-dimethylphenyl)formamido]-4-[3-(trifluoromethyl)phenyl]butanoyl]pyrrolidine-2-carboxamide]",4.6
12,COc1ccc(C[C@H](NC(=O)c2cccc(O)c2C)[C@H](O)C(=O)N2C[C@@H](Cl)C[C@H]2C(=O)NC(C)(C)C)cc1 [(3-Hydroxy-2-methylbenzoyl)-{2(S)-hydroxy-3(S)-amino-4-(4-methoxy)-phenylbutanoyl}-4(S) -Cl-Pro-NH-t-Bu],0.9
13,"Cc1ccccc1C[C@H](NC(=O)c1c(C)ccc(O)c1C)[C@H](O)C(=O)N1C[C@@H](Cl)C[C@H]1C(=O)NC(C)(C)C [(2S,4S)-N-tert-butyl-4-chloro-1-[(2S,3S)-2-hydroxy-3-[(3-hydroxy-2,6-dimethylphenyl)formamido]-4-(2-methylphenyl)butanoyl]pyrrolidine-2-carboxamide]",34.3
14,Cc1ccc(C[C@H](NC(=O)c2c(C)ccc(O)c2C)[C@H](O)C(=O)N2C[C@@H](Cl)C[C@H]2C(=O)NC(C)(C)C)cc1,3.6
15,Cc1c(O)cc(F)cc1C(=O)N[C@@H](Cc1ccccc1)[C@H](O)C(=O)N1C[C@@H](Cl)C[C@H]1C(=O)NC(C)(C)C,1.7
16,"Cc1cc(O)c(C)c(C(=O)N[C@@H](Cc2cc(F)cc(F)c2)[C@H](O)C(=O)N2C[C@@H](Cl)C[C@H]2C(=O)NC(C)(C)C)c1 [(3-Hydroxy-2,5-dimethylbenzoyl)-{2(S)-hydroxy-3(S)-amino-4-(3,5-difluoro)-phenylbutanoyl}-4(S)-Cl-Pro-NH-t-Bu]",1.2

row,SMILES,IC50 [nM]
1,Cc1c(O)cccc1C(=O)N[C@@H](Cc1ccc(-c2ccccc2)cc1)[C@H](O)C(=O)N1C[C@@H](Cl)C[C@H]1C(=O)NC(C)(C)C [(3-Hydroxy-2-methylbenzoyl)-{2(S)-hydroxy-3(S)-amino-4-(4-phenyl)-phenylbutanoyl}-4(S)-Cl-Pro-NH-t-Bu],0.9
2,"Cc1ccccc1C[C@H](NC(=O)c1ccc(C)c(O)c1C)[C@H](O)C(=O)N1C[C@@H](Cl)C[C@H]1C(=O)NC(C)(C)C [(2S,4S)-N-tert-butyl-4-chloro-1-[(2S,3S)-2-hydroxy-3-[(3-hydroxy-2,4-dimethylphenyl)formamido]-4-(2-methylphenyl)butanoyl]pyrrolidine-2-carboxamide]",49.9
3,"Cc1cc(O)c(C)c(C(=O)N[C@@H](Cc2ccc(-c3ccccc3)cc2)[C@H](O)C(=O)N2C[C@@H](Cl)C[C@H]2C(=O)NC(C)(C)C)c1 [(3-Hydroxy-2,5-dimethylbenzoyl)-{2(S)-hydroxy-3(S)-amino-4-(4-phenyl)-phenylbutanoyl}-4(S)-Cl-Pro-NH-t-Bu]",1.3
4,"Cc1c(O)cccc1C(=O)N[C@@H](Cc1ccc(F)c(F)c1)[C@H](O)C(=O)N1C[C@@H](Cl)C[C@H]1C(=O)NC(C)(C)C [(2S,4S)-N-tert-butyl-4-chloro-1-[(2S,3S)-4-(3,4-difluorophenyl)-2-hydroxy-3-[(3-hydroxy-2-methylphenyl)formamido]butanoyl]pyrrolidine-2-carboxamide]",0.8
5,"Cc1c(O)cccc1C(=O)N[C@@H](Cc1ccc(F)cc1F)[C@H](O)C(=O)N1C[C@@H](Cl)C[C@H]1C(=O)NC(C)(C)C [(2S,4S)-N-tert-butyl-4-chloro-1-[(2S,3S)-4-(2,4-difluorophenyl)-2-hydroxy-3-[(3-hydroxy-2-methylphenyl)formamido]butanoyl]pyrrolidine-2-carboxamide]",1.6
6,"Cc1cc(O)c(C)c(C(=O)N[C@@H](Cc2ccc3sccc3c2)[C@H](O)C(=O)N2C[C@@H](Cl)C[C@H]2C(=O)NC(C)(C)C)c1 [(2S,4S)-1-[(2S,3S)-4-(1-benzothiophen-5-yl)-2-hydroxy-3-[(3-hydroxy-2,5-dimethylphenyl)formamido]butanoyl]-N-tert-butyl-4-chloropyrrolidine-2-carboxamide]",1.5
7,"Cc1c(O)cccc1C(=O)N[C@@H](Cc1cc(F)cc(F)c1)[C@H](O)C(=O)N1C[C@@H](Cl)C[C@H]1C(=O)NC(C)(C)C [(3-Hydroxy-2-methylbenzoyl)-{2(S)-hydroxy-3(S)-amino-4-(3,5-difluoro)-phenylbutanoyl}-4(S)-Cl-Pro-NH-t-Bu]",0.8
8,"Cc1c(O)cccc1C(=O)N[C@@H](Cc1ccc(F)cc1)[C@H](O)C(=O)N1C[C@@H](Cl)C[C@H]1C(=O)NC(C)(C)C [(2S,4S)-N-tert-butyl-4-chloro-1-[(2S,3S)-4-(4-fluorophenyl)-2-hydroxy-3-[(3-hydroxy-2-methylphenyl)formamido]butanoyl]pyrrolidine-2-carboxamide]",0.9
9,"Cc1ccc(O)c(C)c1C(=O)N[C@@H](Cc1ccc2ccccc2c1)[C@H](O)C(=O)N1C[C@@H](Cl)C[C@H]1C(=O)NC(C)(C)C [(2S,4S)-N-tert-butyl-4-chloro-1-[(2S,3S)-2-hydroxy-3-[(3-hydroxy-2,6-dimethylphenyl)formamido]-4-(naphthalen-2-yl)butanoyl]pyrrolidine-2-carboxamide]",2.8
10,Cc1ccc(C(=O)N[C@@H](Cc2ccc3ccccc3c2)[C@H](O)C(=O)N2C[C@@H](Cl)C[C@H]2C(=O)NC(C)(C)C)c(C)c1O,3.2
11,Cc1cc(O)c(C)c(C(=O)N[C@@H](Cc2cccc(C(F)(F)F)c2)[C@H](O)C(=O)N2C[C@@H](Cl)C[C@H]2C(=O)NC(C)(C)C)c1,1.9
12,Cc1c(O)cccc1C(=O)N[C@@H](Cc1cccc(C(F)(F)F)c1)[C@H](O)C(=O)N1C[C@@H](Cl)C[C@H]1C(=O)NC(C)(C)C [(3-Hydroxy-2-methylbenzoyl)-{2(S)-hydroxy-3(S)-amino-4-(3-trifluoromethyl)-phenylbutanoyl}-4(S)-Cl-Pro-NH-t-Bu],0.5
13,Cc1cccc(C[C@H](NC(=O)c2cc(C)cc(O)c2C)[C@H](O)C(=O)N2C[C@@H](Cl)C[C@H]2C(=O)NC(C)(C)C)c1,1.3
14,"Cc1c(O)cc(F)cc1C(=O)N[C@@H](Cc1ccc2ccccc2c1)[C@H](O)C(=O)N1C[C@@H](Cl)C[C@H]1C(=O)NC(C)(C)C [(2S,4S)-N-tert-butyl-4-chloro-1-[(2S,3S)-3-[(5-fluoro-3-hydroxy-2-methylphenyl)formamido]-2-hydroxy-4-(naphthalen-2-yl)butanoyl]pyrrolidine-2-carboxamide]",1.2
15,Cc1ccc(O)c(C)c1C(=O)N[C@@H](Cc1ccc(C(F)(F)F)cc1)[C@H](O)C(=O)N1C[C@@H](Cl)C[C@H]1C(=O)NC(C)(C)C,3.9
